# Reference: patent US7307077B2, “Heterocyclic compound and antitumor agent containing the same as effective ingredient” (Zenyaku Kogyo Kabushiki Kaisha, priority 2001, dated 2007)
# Test system: not given
# Assay: not given
# Conditions: not given
row,melting point [°C],SMILES
1,173 to 175,"FC(F)c1nc2ccccc2n1-c1nc(N2CCOCC2)cc(N2CCSCC2)n1 [compound 3, 2-(2-difluoromethylbenzimidazol-1-yl)-4-morpholino-6-thiomorpholinopyrimidine]"
2,129 to 133,"C[C@@H]1OCCN(c2cc(N3CCOCC3)nc(-n3c(N)nc4ccccc43)n2)[C@@H]1C (relative stereo) [Example 2, 2-(2-aminobenzimidazol-1-yl)-4-(cis-2,3-dimethylmorpholino)-6-morpholinopyrimidine]"
3,242 to 244,"C[C@@H]1CN(c2nc(N3CCOCC3)nc(-n3c(NC=O)nc4ccccc43)n2)C[C@H](C)O1 [compound 28, 2-(cis-2,6-dimethylmorpholino)-4-(2-formylaminobenzimidazol-1-yl)-6-morpholino-1,3,5-triazine]"
4,207 to 210,"C[C@@H]1OCCN(c2nc(N3CCOCC3)nc(-n3c(C(F)F)nc4ccccc43)n2)[C@@H]1C (relative stereo) [compound 13, 2-(2-difluoromethylbenzimidazol-1-yl)-4-(cis-2,3-dimethylmorpholino)-6-morpholino-1,3,5-triazine]"

# Test system: MCF-7 cells
# Assay: Test 1: growth inhibition of MCF-7 human breast cancer cells
# Type: cell-based
# Conditions: 72 hours culture with sample, read-out: GI50 (50% growth inhibition concentration)
# Description: Used in the test were MCF-7 cells which were established from human breast cancer and were cultured routinely under the conditions of 37° C. and 5% CO2, in MEM medium supplemented with 10% fetal calf serum, 25 mM of HEPES and 0.1 mg/ml of kanamycin. The MCF-7 cells in a logarithmic growth phase were treated with trypsin/EDTA to prepare single cell suspension adjusted to 4.0×10^4 cells/ml in MEM medium (supplemented with 10% fetal calf serum, 25 mM of HEPES and 0.1 mg/ml of kanamycin). Test compounds were dissolved in DMSO and diluted with RPMI 1640 medium (supplemented with 10% fetal calf serum, 25 mM of HEPES and 0.1 mg/ml of kanamycin) to a concentration of 2.0×10^−4-2.0×10^−9 M.
# The cell suspension was filled in a 96-wells microplate at a rate of 0.1 ml per well and was cultured for 24 hours so as to make the cells adhered to the microplate. Then, it was added with 0.1 ml of the sample solution and cultured at 37° C. for 72 hours in 5% CO2.
# 50% Growth inhibition concentrations (GI50 μM) were calculated from growth inhibitions at various sample concentrations.
row,GI50 [nM],SMILES
1,340,"[O-][S+]1CCN(c2nc(N3CCOCC3)nc(-n3c(C(F)F)nc4ccccc43)n2)CC1 [compound 21, 2-(2-difluoromethylbenzimidazol-1-yl)-4-morpholino-6-(tetrahydro-1,4-thiazin-1-oxo-4-yl)-1,3,5-triazine]"

# Same assay, conditions: Homo sapiens, MCF7, 72 hours culture with sample, read-out: GI50 (50% growth inhibition concentration)
row,GI50 [nM],SMILES
1,380,"FC(F)c1nc2ccccc2n1-c1nc(N2CCOCC2)cc(N2CCSCC2)n1 [compound 3, 2-(2-difluoromethylbenzimidazol-1-yl)-4-morpholino-6-thiomorpholinopyrimidine]"
2,3700,"Cc1nc2ccccc2n1-c1nc(N2CCOCC2)nc(N2CCOCC2)n1 [compound B, 2-(2-methylbenzimidazol-1-yl)-4,6-dimorpholino-1,3,5-triazine, reference compound]"
3,290,"CC1CN(c2cc(N3CCOCC3)nc(-n3c(C(F)F)nc4ccccc43)n2)CCO1 (stereo not shown) [compound 6, 2-(2-difluoromethylbenzimidazol-1-yl)-4-(2-methylmorpholino)-6-morpholinopyrimidine]"
4,20000,"c1cn(-c2nc(N3CCOCC3)nc(N3CCOCC3)n2)cn1 [compound C, 2-(imidazol-1-yl)-4,6-dimorpholino-1,3,5-triazine, reference compound]"
5,350,"FC(F)c1nc2ccccc2n1-c1nc(N2CCOCC2)nc(N2CCSCC2)n1 [compound 16, 2-(2-difluoromethylbenzimidazol-1-yl)-4-morpholino-6-thiomorpholino-1,3,5-triazine]"
6,< 40,"C[C@@H]1OCCN(c2nc(N3CCOCC3)nc(-n3c(NC=O)nc4ccccc43)n2)[C@H]1C (relative stereo) [compound 26, 2-(trans-2,3-dimethylmorpholino)-4-(2-formylaminobenzimidazol-1-yl)-6-morpholino-1,3,5-triazine]"
7,180,"C[C@@H]1OCCN(c2cc(N3CCOCC3)nc(-n3c(C(F)F)nc4ccccc43)n2)[C@H]1C (relative stereo) [compound 4, 2-(2-difluoromethylbenzimidazol-1-yl)-4-(trans-2,3-dimethylmorpholino)-6-morpholinopyrimidine]"
8,2200,"C[C@@H]1OCCN(c2cc(N3CCOCC3)nc(-n3cnc4ccccc43)n2)[C@H]1C (relative stereo) [compound A, 2-(benzimidazol-1-yl)-4-(trans-2,3-dimethylmorpholino)-6-morpholinopyrimidine]"
9,190,"CCC(=O)Nc1nc2ccccc2n1-c1nc(N2CCOCC2)nc(N2CCO[C@@H](C)[C@@H]2C)n1 (relative stereo) [compound 25, 2-(2-propionylaminobenzimidazol-1-yl)-4-(trans-2,3-dimethylmorpholino)-6-morpholino-1,3,5-triazine]"
10,> 100000,"CN(C)c1nc(N(C)C)nc(N(C)C)n1 [compound D, hexamethylmelamine, reference compound]"
11,180,"C[C@@H]1CO[C@@H](C)CN1c1nc(N2CCOCC2)nc(-n2c(C(F)F)nc3ccccc32)n1 (relative stereo) [compound 18, 2-(2-difluoromethylbenzimidazol-1-yl)-4-(trans-2,5-dimethylmorpholino)-6-morpholino-1,3,5-triazine]"
